Tests used:
[1] = biological target: T1, Epoxide hydrolase 1 (Rattus norvegicus) (UniProt P07687); assay: Percent Enantiomeric composition (R,R) of trans-Dihydrodiol formed by Microsomal Epoxide Hydrolase from rat liver at 50 mM Tris-HCl buffer, pH 8.4 at 37 degrees C
T1 sequence (whole entry): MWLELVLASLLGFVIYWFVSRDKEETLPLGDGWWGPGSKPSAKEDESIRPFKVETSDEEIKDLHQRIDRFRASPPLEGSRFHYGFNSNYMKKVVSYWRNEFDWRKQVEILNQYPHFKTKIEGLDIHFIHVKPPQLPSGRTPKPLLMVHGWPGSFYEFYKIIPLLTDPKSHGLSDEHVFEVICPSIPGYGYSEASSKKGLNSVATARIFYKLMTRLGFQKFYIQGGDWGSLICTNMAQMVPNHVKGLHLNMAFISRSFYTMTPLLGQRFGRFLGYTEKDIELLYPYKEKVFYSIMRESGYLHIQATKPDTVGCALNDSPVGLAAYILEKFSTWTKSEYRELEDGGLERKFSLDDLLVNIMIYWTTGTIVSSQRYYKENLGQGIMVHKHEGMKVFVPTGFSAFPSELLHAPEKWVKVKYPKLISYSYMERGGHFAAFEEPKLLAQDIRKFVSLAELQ

[2] = biological target: T1, Epoxide hydrolase 1 (Rattus norvegicus); assay: Percent Enantiomeric composition (S,S) of trans-Dihydrodiol formed by Microsomal Epoxide Hydrolase from rat liver at 50 mM Tris-HCl buffer, pH 8.4 at 37 degrees C
[3] = biological target: Epoxide hydrolase 1 (Oryctolagus cuniculus) (UniProt P04068); assay: Percent Enantiomeric composition (R,R) of trans-Dihydrodiol formed by Microsomal Epoxide Hydrolase from rabbit liver microsomes
[4] = biological target: Epoxide hydrolase 1 (Oryctolagus cuniculus) (UniProt P04068); assay: Percent Enantiomeric composition (S,S) of trans-Dihydrodiol formed by Microsomal Epoxide Hydrolase from rabbit liver microsomes

Epoxide hydrolase 1 (Oryctolagus cuniculus), sequence (P04068 whole entry, looked up): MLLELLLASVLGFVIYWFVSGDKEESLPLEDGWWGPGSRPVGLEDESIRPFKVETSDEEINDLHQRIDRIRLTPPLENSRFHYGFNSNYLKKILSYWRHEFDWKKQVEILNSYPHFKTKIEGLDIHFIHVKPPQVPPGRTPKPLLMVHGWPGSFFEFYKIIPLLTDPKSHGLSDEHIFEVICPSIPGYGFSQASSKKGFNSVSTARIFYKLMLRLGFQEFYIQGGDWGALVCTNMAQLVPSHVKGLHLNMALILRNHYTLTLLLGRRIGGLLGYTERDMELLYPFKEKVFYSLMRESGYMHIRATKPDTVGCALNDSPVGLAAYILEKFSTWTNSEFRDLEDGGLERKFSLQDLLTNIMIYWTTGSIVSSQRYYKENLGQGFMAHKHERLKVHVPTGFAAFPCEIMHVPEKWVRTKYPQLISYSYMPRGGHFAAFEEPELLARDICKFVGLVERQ

| Enantiomeric composition [1] | Enantiomeric composition [2] | Enantiomeric composition [3] | Enantiomeric composition [4] | SMILES |
| --- | --- | --- | --- | --- |
| 42% | 58% | – | – | c1ccc2c(c1)-c1ccccc1C1OC21 (stereo not drawn) |
| 86% | 14% | – | – | c1cc2c3c(c1)ccc1cccc(c13)C1OC21 (stereo not drawn) |
| – | – | 82% | 18% | C1=CC2OC2C=C1 (stereo not drawn) |
| 83% | 17% | – | – | c1ccc2c(c1)c1cccc3c1c1c(cccc21)C1OC31 (stereo not drawn) |
